{
  "source": "paper PMC12250302",
  "about": "“Synthesis, Antimicrobial Activities, and Model of Action of Novel Tetralone Derivatives Containing Aminoguanidinium Moiety” (International Journal of Molecular Sciences, 2025)",
  "key": {"[1]": {"tested_on": "human colon adenocarcinoma cell line (Caco-2)", "experiment": "Cytotoxicity, CCK-8 method", "format": "cell-based", "method": "(§1) The CCK-8 method was used to evaluate the toxicity of 2D to four cell lines (lung cancer cell line (A549), human liver cell line (HepG2), human embryonic kidney 293T cells (HEK 293-T), and human colon adenocarcinoma cell line (Caco-2)). Cells with a density of 1 × 10^5 cells/well were added to 96-well plates and then incubated for 24 h at 5% CO2 and 37 °C. Subsequently, after treatment with different concentrations of 2D for 24 h, the CCK-8 kit was added according to the prescribed procedure. Following an incubation at 37 °C for 0.5 h, the absorbances at 450 nm were detected. The […] was calculated according to the following formula:Cytotoxic (%) = (Atest/Acontrol) × 100%(2)"}, "[2]": {"tested_on": "human embryonic kidney 293T cells (HEK 293-T)", "experiment": "Cytotoxicity, CCK-8 method", "format": "cell-based", "method": "as §1"}, "[3]": {"tested_on": "human liver cell line (HepG2)", "experiment": "Cytotoxicity, CCK-8 method", "format": "cell-based", "method": "as §1"}, "[4]": {"tested_on": "lung cancer cell line (A549)", "experiment": "Cytotoxicity, CCK-8 method", "format": "cell-based", "method": "as §1"}, "MRSA-2 biofilm": {"tested_on": "MRSA-2 biofilm", "experiment": "Biofilm elimination assay (crystal violet)", "format": "cell-based, Staphylococcus aureus", "details": "0.25 μg/mL, 24 h", "method": "The ability of 2D to eliminate biofilm was evaluated. MRSA-2 (1 × 10^6 CFU/mL) was incubated in 96-well plates for 24 h until biofilm formation. The planktonic bacteria were discarded and washed thrice with PBS. […] According to the above method, the OD575 nm value was detected after the following steps: PBS washing, methanol fixation, crystal violet staining, and ethanol incubation."}, "MRSA-2 [5]": {"tested_on": "MRSA-2", "experiment": "MRSA-induced mouse skin abscess model", "format": "in vivo", "text": "The MRSA-induced mouse skin abscess model was used to assess the in vivo antibacterial effects of 2D. Female KM mice, aged 4–6 weeks and weighing 20 ± 2 g, were purchased from the Laboratory Animal Center, Lanzhou Institute of Veterinary Medicine, Chinese Academy of Agricultural Sciences. The animal experiments were approved by the Ethics Committee of Research Involving Animals of the Lanzhou Institute of Husbandry and Pharmaceutical Science of CAAS (Approval number: 2025-03) and performed in accordance with the guidelines of the Ethics Committee for Animal Experiments. Prior to the formal experiment, all mice were acclimated for 5 days. The mice were kept in a pathogen-free environment with a 12 h light/12 h dark cycle, 50% ± 10% humidity, and a temperature of 24 °C ± 2 °C. […] The depilation method employed was as follows: depilatory paste was applied to the designated area for 10 min, after which it was thoroughly washed with 0.9% saline. The mice were semi-anesthetized by intraperitoneal injection with sodium Ulatan (TCI, 20%, 100 μL). […] After a 24 h interval, the administration was repeated, and 24 h after the last administration, the volume of abscess was measured and calculated. Then, the skin of the infected site and main organs were collected for tissue bacterial load and pathological detection."}, "MRSA-2 [6]": {"tested_on": "MRSA-2", "experiment": "Bactericidal time-kill kinetics assay", "format": "cell-based, Staphylococcus aureus", "details": "2, 4 and 8 µg/mL, 0-24 h", "method": "(§2) S. aureus (ATCC 29213) and MRSA-2 were cultivated in MH broth until the logarithmic growth phase and then diluted to 1 × 10^7 CFU/mL, respectively. […] After a specified time interval (0, 1, 2, 4, 8, 12, and 24 h), the culture suspension was serially diluted in 0.9% saline over a concentration range from 10^−1 to 10^−9. A volume of 100 μL of the obtained diluent and culture solution was dispensed onto a sterile MH agar plate. The plate was subsequently cultured at 37 °C for a duration of 24 h. The total number of colonies was enumerated and expressed as log10(CFU/mL)."}, "S. aureus (ATCC 29213)": {"tested_on": "S. aureus (ATCC 29213)", "experiment": "Bactericidal time-kill kinetics assay", "format": "cell-based, Staphylococcus aureus", "details": "2, 4 and 8 µg/mL, 0-24 h", "method": "as §2"}, "MRSA-2 [7]": {"tested_on": "MRSA-2", "experiment": "Membrane depolarization assay, DiSC3(5)", "format": "cell-based, Staphylococcus aureus", "details": "2, 4, and 8 μg/mL", "method": "MRSA-2 was cultivated in MH broth, with a final concentration of 1 × 10^8 CFU/mL. After centrifugation, the supernatant was discarded. The bacterial precipitate was washed thrice and resuspended with PBS. Subsequently, the bacterial resuspension (180 μL) and the DiSC5 (10 μL, 3 μM) were incubated in the dark for 30 min. The fluorescence intensity was measured at 2 min intervals for a period of 10 min. After the fluorescence intensity was stabilized, 10 μL of 2D (final concentrations of 1, 2, 4, and 8 μg/mL) was added, respectively. The fluorescence intensity was measured at 2 min intervals for a total duration of 30 min. The excitation/emission wavelength was 622/670 nm."}, "MRSA-2 [8]": {"tested_on": "MRSA-2", "format": "cell-based, Staphylococcus aureus", "details": "not told", "method": "MRSA-2 bacterial precipitates in the logarithmic growth phase were collected by centrifugation, washed, and resuspended in PBS to a density of 1 × 10^6 CFU/mL. PI (10 μM, 40 μL) was added to a black 96-well plate along with 150 μL of bacterial suspension. After an incubation period of 30 min, fluorescence was detected at excitation wavelengths of 535 nm and emission wavelengths of 617 nm at 5 min intervals until a stable state was reached."}, "MRSA-2 [9]": {"tested_on": "MRSA-2", "experiment": "Bacterial DNA and protein leakage experiment", "format": "cell-based, Staphylococcus aureus", "details": "compared with the control group; 4 h", "method": "MRSA-2 was cultured to logarithmic growth phase. The bacterial precipitate was collected, washed twice with PBS (pH = 7.2–7.4), and resuspended in PBS to 1 × 10^7 CFU/mL. […] After centrifugation of 1 mL of the suspension, the supernatant was collected. The protein level was measured by BCA protein concentration kits (Servicebio, Hubei, China), and the DNA level was detected by microspectrophotometer."}},
  "note": "Entries after “also recorded” stand apart in the source; their conditions may differ.",
  "data": [
    {"compound": "[H]/N=C(\\N)NN=C1CCCc2cc(OCCCCCCC)ccc21", "note": "[Compound 2D, (E)-2-(6-(heptyloxy)-3,4-dihydronaphthalen-1(2H)-ylidene)hydrazine-1-carboximidamide]", "values": [
      {"measurement": "IC50", "setting": "[1]; Homo sapiens, CaCo-2, 24 h, CCK-8", "result": 9.86, "unit": "µg/mL"},
      {"measurement": "Selectivity index (SI)", "setting": "[1]; SI = IC50 (CaCo-2)/MIC ATCC 29213", "result": 19.72},
      {"measurement": "IC50", "setting": "[2]; Homo sapiens, HEK 293-T, 24 h, CCK-8", "result": 13.1, "unit": "µg/mL"},
      {"measurement": "Selectivity index (SI)", "setting": "[2]; SI = IC50 (HEK 293-T)/MIC ATCC 29213", "result": 26.18},
      {"measurement": "IC50", "setting": "[3]; Homo sapiens, HepG2, 24 h, CCK-8", "result": 6, "unit": "µg/mL"},
      {"measurement": "Selectivity index (SI)", "setting": "[3]; SI = IC50 (HepG2)/MIC ATCC 29213", "result": 12.00},
      {"measurement": "IC50", "setting": "[4]; Homo sapiens, A549, 24 h, CCK-8", "result": 3.57, "unit": "µg/mL"},
      {"measurement": "Selectivity index (SI)", "setting": "[4]; SI = IC50 (A549)/MIC ATCC 29213", "result": 7.14},
      {"measurement": "biofilm elimination rate", "setting": "MRSA-2 biofilm", "result": 21.4, "unit": "%"},
      {"measurement": "purulent lesions at the infection site (skin histopathology)", "setting": "MRSA-2 [5]; 5 mg/kg", "result": "significantly smaller"},
      {"measurement": "volume of skin abscess", "setting": "MRSA-2 [5]; 5 mg/kg, injected 2 h and 24 h postinfection, compared to model and solvent group", "result": "reduced volume"},
      {"measurement": "purulent foci (skin histopathology)", "setting": "MRSA-2 [5]; 10 mg/kg", "result": "almost no purulent foci"},
      {"measurement": "skin abscess appearance", "setting": "MRSA-2 [5]; 10 mg/kg, injected 2 h and 24 h postinfection", "result": "devoid of any discernible abscesses"},
      {"measurement": "bacterial load of the skin at the infected site", "setting": "MRSA-2 [5]; 2D 5 and 10 mg/kg, vancomycin 5 mg/kg, compared with model and solvent group", "result": "decreased bacterial load; also recorded: significantly reduced"},
      {"measurement": "histopathology of the major organs", "setting": "MRSA-2 [5]; infected mice after treatment, H&E", "result": "no discernible lesions"},
      {"measurement": "time-kill response", "setting": "MRSA-2 [6]", "result": "concentration-dependent and time-dependent bactericidal response"},
      {"measurement": "time-kill response", "setting": "S. aureus (ATCC 29213)", "result": "concentration-dependent and time-dependent bactericidal response"},
      {"measurement": "DiSC3(5) fluorescence intensity (depolarization)", "setting": "MRSA-2 [7]", "result": "increased instantaneously"},
      {"measurement": "PI fluorescence intensity (inner membrane permeability)", "setting": "MRSA-2 [8]", "result": "significantly enhanced"},
      {"measurement": "content of extracellular DNA", "setting": "MRSA-2 [9]", "result": "significantly increased"},
      {"measurement": "content of extracellular protein", "setting": "MRSA-2 [9]", "result": "significantly increased"}
    ]}
  ]
}
